According to patent publication US20130101634A1, “COMPOSITIONS AND METHODS FOR REDUCING MICROBIAL OVERGROWTH IN THE SMALL INTESTINES” (DEERLAND ENZYMES, INC., priority 2011, published 2013):

Tests used:
[1] = system: E. coli; experiment: Growth curve (O.D. 600 over time) in nutrient broth; type: cell-based; details: 1 mg/ml in nutrient broth, alone or with 1 mg/ml EDTA or citrate, 37° C., FIGS. 1, 3, 5
Experimental: (§1) Growth Curves Since bacteria grow exponentially, it is useful to plot the logarithm of the relative population size [y=ln(NIN0)] against time. Frozen permanents of each strain were streaked for single colonies using nutrient agar plates warmed prior to use. Single bacterial cells were restreaked on a nutrient agar plate at 37° C. for 24 h to 72 h depending on strain. Cells of several well-grown colonies on the plate were added to 50 ml of nutrient broth with shaking at 37° C. until the culture reached the desired optical density. Ingredients of interest were slowly added while stirring at 37° C. […] Samples were taken at various time points and the optical density of the culture was obtained at 600 nm. All experiments were replicated twice.

[2] = system: Bacteroides fragilis; experiment: as above; type: cell-based; details: 1 mg/ml in nutrient broth, alone or with 1 mg/ml EDTA, 37° C., FIGS. 2, 4, 6
Experimental: as §1

| Substance | cell growth (O.D. 600 as a function of time) [1] | cell growth (O.D. 600 as a function of time) [2] |
| --- | --- | --- |
| lysozyme | cell growth is not totally eliminated and cell culture will recover | cell growth is not totally eliminated and cell culture will recover |
| nisin | cell growth is not totally eliminated and cell culture will recover | cell growth is not totally eliminated and cell culture will recover |
